The values that follow come from patent US20230173005A1 (ASIA UNIVERSITY, priority 2021, published 2023).

The subject of data set [1] is glutathione peroxidase (GPX1). Briefly: Western blotting of kidney, GPX1. In kind it is in vivo, mouse. As for the experimental part:
(§1) Male ICR mice aged 7-8 weeks (each weighing about 30-32 grams) were divided into 6 groups, 10 mice per group, and the six groups correspond to a control group, an induction group, a positive control group and low-medium-high dose brown Flammulina velutipes water extract groups. The entire process was limited to 10 days. […] Both of the induction and the sacrifice were performed in a fasting state.
(§2) The administration was performed for 10 consecutive days while feeding at around 10 a.m. Normal food was provided during the above period. […] On the day before induction, all […] groups were treated on an empty stomach.
(§3) The kidneys were homogenized with a PBS solution and diluted 10 folds to form a homogeneous solution, and the homogeneous solution was centrifuged at 12,000 rpm at 4° C. for 20 minutes. The supernatant was taken to quantify each protein concentration, and treated to have a uniform concentration. A protein was added to a protein dye to form a sample, placed in a drying bath at 100° C., and heated for 5 minutes. Then, the sample was injected into 10%, 15% or 8% of colloid prepared with 40% of acrylamide/bisN,N-methylenbisacrylamide, in which the ratio of acrylamide to bisN,N-methylenbisacrylamide was 29:1. […]
(§4) After completion of the transfer, blocking was performed for 1 hour using milk. […] In addition, image data were acquired and analyzed by the Image J system.

The next data set relates to TLR4. Briefly: Western blotting of kidney, TLR4. In kind it is in vivo, mouse. How it is done: as §1, §2, §3, §4
In another data set the test system is Bcl-2. Briefly: Western blotting of kidney, Bcl-2. In kind it is in vivo, mouse. How it is done: as §1, §2, §3, §4
Data set [2] relates to superoxide dismutase (SOD). The data set is described as follows: Western blotting of kidney, SOD. It counts as in vivo, mouse. As for the experimental part: as §1, §2, §3, §4
Background: A western blot detects proteins with antibodies after separation by electrophoresis.

The subject of a further data set is COX-2. The data set is described as follows: Western blotting of kidney, COX-2. It counts as in vivo, mouse. As for the experimental part: as §1, §2, §3, §4
The test system of a further data set is catalase. It counts as in vivo, mouse. The note with it: kidney; Amifostine 200 mg/Kg i.p. or WFV 1000 mg/kg oral in advance. As for the experimental part: as §1, §2, §3, §4
The test system of the next data set is iNOS. Briefly: Western blotting of kidney, iNOS. It counts as in vivo, mouse. As for the experimental part:
as §1, §2, §3, §4

A further data set relates to BAX. The data set is described as follows: Western blotting of kidney, BAX. In kind it is in vivo, mouse. As for the experimental part: as §1, §2, §3, §4
Data set [3] has as its system mouse model of the acute renal failure induced by cisplatin. Briefly: Weight measurement in cisplatin-induced mice. It counts as in vivo. The settings on record: Amifostine 200 mg/kg i.p. 30 min after cisplatin 20 mg/Kg day 7. How it is done:
as §1, §2

For data set [4] the test system is unchanged. The data set is described as follows: Measurement on kidney weight/body weight ratio. In kind it is in vivo. The settings on record: Amifostine 200 mg/kg i.p. 30 min after cisplatin 20 mg/Kg day 7. As for the experimental part:
as §1, §2
Kidneys were removed from the mouse body, and adrenal glands and surrounding fat were removed, washed with saline and then weighed immediately. The weights of the both kidneys were obtained and compared with the weight of the mouse measured on the last day, and the difference between the kidney/weight ratios of the mice was calculated.

The next data set has as its system p-NFκB. The data set is described as follows: Western blotting of kidney, p-NFκB. It counts as in vivo, mouse. As for the experimental part: as §1, §2, §3, §4
Another data set has as its system TNF-α. The data set is described as follows: Cytokine analysis (ELISA), TNF-α. It counts as in vivo, mouse. The settings on record: serum ELISA; cisplatin 20 mg/Kg i.p. vs control group. How it is done: as §1, §2
(§5) After sacrificing the mice to collect corresponding blood, and serum was separated and then diluted 10-fold or 5-fold. TNF-α, IL-6 and IL-1β were analyzed according to the multiple antibody sandwich principle by using BioLegend Company's ELISA kits.
(§6) In a 96-well microassay plate, 100 μL of capture antibody was added to each well, and placed at room temperature overnight. […] Finally, 2 equivalents of 100 μL of sulfuric acid as a stop solution was added, and the change in absorbance at a wavelength of 450 nm was measured with a microplate spectrometer. The concentration of cytokines in serum was additionally calculated.
For orientation: An ELISA detects its analyte on a solid surface through an enzyme-linked reagent.

The next data set relates to NO free radicals. The data set is described as follows: Nitrite analysis of mouse serum. It counts as in vivo. The settings on record: cisplatin 20 mg/Kg i.p. How it is done: as §1, §2
Mouse serum was taken by 100 μL each and added to a new 96-well microassay plate. Then, Griess Reagent was added by the same amount of […]. The Griess reagent was obtained by mixing an aqueous solution of N-(1-naphthyl)ethylenediamine with a 1% sulfanilamide solution dissolved in 5% phosphoric acid in the volumetric ratio of 1:1. Thereafter, the absorbance was measured at a wavelength of 540 nm using a microplate spectrometer (Molecular Devices), so that the ability of removing NO free radicals was measured in each group.

The next data set deals with IL-1β. The data set is described as follows: Cytokine analysis (ELISA), IL-1β. It counts as in vivo, mouse. The settings on record: serum ELISA; cisplatin 20 mg/Kg i.p. vs control group. As for the experimental part: as §1, §2, §5, §6
A further data set concerns PI3K. The data set is described as follows: Western blotting of kidney, PI3K. It counts as in vivo, mouse. The settings on record: cisplatin 20 mg/Kg i.p. vs control group. As for the experimental part:
as §1, §2, §3, §4

The subject of the next data set is LC3B. Briefly: Western blotting of kidney, LC3B. In kind it is in vivo, mouse. The settings on record: cisplatin 20 mg/Kg i.p. vs control group. As for the experimental part:
as §1, §2, §3, §4

The subject of the next data set is Nrf2. The data set is described as follows: Western blotting of kidney, Nrf2. In kind it is in vivo, mouse. The settings on record: cisplatin 20 mg/Kg i.p. vs control group. How it is done: as §1, §2, §3, §4
The test system of a further data set is IL-6. Briefly: Cytokine analysis (ELISA), IL-6. In kind it is in vivo, mouse. The settings on record: serum ELISA; cisplatin 20 mg/Kg i.p. vs control group. As for the experimental part:
as §1, §2, §5, §6

The subject of another data set is AKT. Briefly: Western blotting of kidney, AKT. It counts as in vivo, mouse. The settings on record: cisplatin 20 mg/Kg i.p. vs control group. As for the experimental part: as §1, §2, §3, §4
Another data set relates to HO-1. The data set is described as follows: Western blotting of kidney, HO-1. In kind it is in vivo, mouse. The note with it: cisplatin 20 mg/Kg i.p. vs control group. As for the experimental part:
as §1, §2, §3, §4

Another data set relates to Beclin-1. Briefly: Western blotting of kidney, Beclin-1. It counts as in vivo, mouse. The settings on record: cisplatin 20 mg/Kg i.p. vs control group. As for the experimental part: as §1, §2, §3, §4
The next data set relates to p62. The data set is described as follows: Western blotting of kidney, p62. It counts as in vivo, mouse. The settings on record: cisplatin 20 mg/Kg i.p. vs control group. How it is done:
as §1, §2, §3, §4

Setting [5] is: Amifostine 200 mg/Kg i.p. or WFV 1000 mg/kg oral in advance.
Where [6] appears, read: Amifostine 200 mg/Kg i.p. or high-dose WFV (1000 mg/Kg oral) vs cisplatin induction group.
Where [7] appears, read: Amifostine 200 mg/Kg i.p. or high-dose WFV (1000 mg/Kg oral) vs induction group.
Where [8] appears, read: cisplatin 20 mg/Kg i.p. vs control group.

Molecules are shown by their SMILES.

Regarding `NCCCNCCSP(=O)(O)O` [Ami, Amifostine], in [1] (setting [5]), the “expression level of GPX1” value is on record as “not decreased”. The “expression level of TLR4” value with TLR4 (setting [6]) is reported as “decreased”. The “expression level of Bcl-2” value in the data set with Bcl-2 (setting [7]) is “increased”. Moreover, the “expression level of SOD” value in data set [2] (setting [5]) was “not decreased”. The “expression level of COX-2” value in the data set on COX-2 (setting [6]) is given as “decreased”. In addition, the “expression level of catalase” value in the data set on catalase was “not decreased”. Besides, in the data set on iNOS (setting [6]), the “expression level of iNOS” value was “decreased”. Further, the “expression level of apoptogenic protein BAX” value in the data set with BAX (setting [7]) is “significantly decreased”. The “Body weight After” value in data set [3] is 36.6 ± 0.18 g. The Kidney weight in data set [4] is on record as 0.55 ± 0.025 g. Moreover, in the data set on p-NFκB (setting [6]), the “expression level of p-NFκB” value was “decreased”.
Turning to `N.N.[Cl][Pt][Cl]` [Cis, cisplatin], in the data set on TNF-α, the “concentration of TNF-α” value is recorded as “increased”. The “expression level of NO free radicals (nitrite in serum)” value in the data set on NO free radicals is recorded as “increased remarkably”. Also, the “concentration of IL-1β” value in the data set with IL-1β is “increased”. Also, the “expression level of GPX1” value in data set [1] (setting [8]) is “decreased”. In the data set with PI3K, the “expression level of PI3K” value is listed as “significantly increased”. The “level of LC3B” value in the data set on LC3B is “significantly increased”. In addition, the “expression level of TLR4” value in the data set with TLR4 (setting [8]) was “upward trend”. In addition, in the data set on Bcl-2 (setting [8]), the “expression level of Bcl-2” value was “decreased”. Also, in data set [2] (setting [8]), the “expression level of SOD” value is “decreased”. Besides, the “expression level of Nrf2” value in the data set with Nrf2 is “significantly increased”. Besides, in the data set on COX-2 (setting [8]), the “expression level of COX-2” value is recorded as “significant differences compared with the control group”. In addition, in the data set on iNOS (setting [8]), the “expression level of iNOS” value was “significant differences compared with the control group”. Also, the “concentration of IL-6” value in the data set on IL-6 is on record as “increased”. Also, in the data set with AKT, the “expression level of AKT” value is reported as “significantly increased”. Further, in the data set on BAX (setting [8]), the “expression level of apoptogenic protein BAX” value is recorded as “increased”. For the same compound, in the data set with HO-1, the “expression level of HO-1” value is given as “significantly increased”. The “level of Beclin-1” value with Beclin-1 is recorded as “significantly increased”. Besides, the “expression level of p-NFκB” value in the data set on p-NFκB (setting [8]) was “upward trend”. Further, the “level of p62” value with p62 was “significantly increased”.
